The source made the active and inactive calls. No rule for the calls is given here.
Tested on: GENE-TOX genotoxicity assays, various organisms and cells
Assay: GENE-TOX mutagenicity studies
Conditions: for call: Assay Type: In vivo carcinogenicity studies
From the text: GENE-TOX provides genetic toxicology (mutagenicity) test data from expert peer review of open scientific literature for more than 3,000 chemicals from the United States Environmental Protection Agency (EPA). GENE-TOX was established to select assay systems for evaluation, review data in the scientific literature, and recommend proper testing protocols and evaluation procedures for these systems.
GENE-TOX covers the years 1991 - 1998. It is no longer updated.
This is an archive assay for GENE-TOX mutagenicity studies.

[1] = Species/Cell Type: Chinese hamster lung (V79) cells, Assay Type: Forward gene mutation at the HPRT or ouabain locus, Assay Code: V79+, Evaluation Type: Evaluation A (Pre-1980)
[2] = Species/Cell Type: Nonhuman, Assay Code: CCG+L, Evaluation Type: Evaluation A (Pre-1980)
[3] = Species/Cell Type: Drosophila melanogaster, Assay Type: Sex-linked recessive lethal gene mutation, Assay Code: SRL+, Evaluation Type: Evaluation A (Pre-1980)
[4] = Species/Cell Type: Escherichia coli polA (W3119 vs P3478), Assay Type: Rec-assay, DNA effects (bacterial DNA repair), Assay Code: RE1+, Evaluation Type: Evaluation A (Pre-1980)
[5] = Species/Cell Type: Nonhuman, Assay Code: CCG+, Evaluation Type: Evaluation A (Pre-1980)
[6] = Species/Cell Type: Nonhuman, Assay Type: Sister-chromatid exchange (SCE) in vitro, Assay Code: SC2+D, Dose Response: With dose response, Evaluation Type: Evaluation B (Post-1980)
[7] = Species/Cell Type: Nonhuman, Assay Type: Sister-chromatid exchange (SCE) in vitro, Assay Code: SC2+, Evaluation Type: Evaluation B (Post-1980)
[8] = Species/Cell Type: Salmonella typhimurium (one or more of the five standard strains: TA98, TA100, TA1535, TA1537, and TA1538), Assay Type: Histidine reverse gene mutation, Ames assay, Assay Code: SAL-, Evaluation Type: Evaluation A (Pre-1980)
[9] = Species/Cell Type: Salmonella typhimurium (one or more of the five standard strains: TA98, TA100, TA1535, TA1537, and TA1538), Assay Type: Histidine reverse gene mutation, Ames assay, Assay Code: SALT, Evaluation Type: Evaluation A (Pre-1980)
[10] = Species/Cell Type: Drosophila melanogaster, Assay Type: Sex-linked recessive lethal gene mutation, Assay Code: SRLT, Evaluation Type: Evaluation A (Pre-1980)
[11] = Species/Cell Type: Nonhuman, Assay Type: Chromosome aberrations in vitro, Assay Code: CY&+, Evaluation Type: Evaluation A (Pre-1980)

`Cc1ccc2cc3c(ccc4ccccc43)c3c2c1C(=O)C3` was tested, and the mutagenic call [1] was “active; positive”, the call [2] was “active; positive” and the mutagenic call (Species/Cell Type: Salmonella typhimurium (one or more of the five standard strains: TA98, TA100, TA1535, TA1537, and TA1538), Assay Type: Histidine reverse gene mutation, Ames assay, Assay Code: SAL+*, Activation: With metabolic activation, Evaluation Type: Evaluation A (Pre-1980)) was “active; positive”.
With `CC(=O)NS(=O)(=O)c1ccc(N)cc1` the mutagenic call (Species/Cell Type: Neurospora crassa, Assay Type: Aneuploidy, chromosome aberrations, Assay Code: NEN+, Evaluation Type: Evaluation A (Pre-1980)) was “active; positive” and the mutagenic call (Species/Cell Type: Saccharomyces cerevisiae, Assay Type: Aneuploidy, chromosome aberrations, Assay Code: YEN+, Evaluation Type: Evaluation A (Pre-1980)) was “active; positive”.
`CN(C)N=Nc1ccccc1` was tested, and the mutagenic call (Species/Cell Type: Drosophila melanogaster, Assay Type: Aneuploidy, partial sex chromosome loss, chromosome aberrations, Assay Code: DAP+M, Evaluation Type: Evaluation A (Pre-1980)) was “active; positive”, the mutagenic call [3] was “active; positive” and the mutagenic call (Species/Cell Type: Drosophila melanogaster, Sex: Male, Assay Type: Heritable translocation test, chromosome aberrations, Assay Code: DHT+, Evaluation Type: Evaluation A (Pre-1980)) was “active; positive”. For the same compound, the mutagenic call (Species/Cell Type: Escherichia coli polA (W3110 vs P3478), Assay Type: Rec-assay, DNA effects (bacterial DNA repair), Assay Code: RE2+, Evaluation Type: Evaluation A (Pre-1980)) was “active; positive”, the mutagenic call [4] was “active; positive” and the mutagenic call (Species/Cell Type: Mammalian polychromatic erythrocytes, Assay Type: Micronucleus test, chromosome aberrations, Assay Code: MNT+, Evaluation Type: Evaluation A (Pre-1980)) was “active; positive”. The mutagenic call (Species/Cell Type: Neurospora crassa, Assay Type: Forward gene mutation, Assay Code: NEF+, Evaluation Type: Evaluation A (Pre-1980)) was “active; positive”, the mutagenic call (Species/Cell Type: Nonhuman lymphocytes or leukocytes, Assay Type: Chromosome aberrations in vivo, Assay Code: CY%-, Evaluation Type: Evaluation A (Pre-1980)) was “inactive; negative” and the call [5] was “active; positive”. The mutagenic call (Species/Cell Type: Nonhuman, Assay Type: Sister-chromatid exchange (SCE) in vivo, Assay Code: SC3+D, Dose Response: With dose response, Evaluation Type: Evaluation A (Pre-1980)) was “active; positive”, the mutagenic call (Species/Cell Type: Saccharomyces cerevisiae, Assay Type: Forward and reverse gene mutation, mitotic recombination and gene conversion, host-mediated assay, Assay Code: HME+, Evaluation Type: Evaluation A (Pre-1980)) was “active; positive” and the mutagenic call (Species/Cell Type: Saccharomyces cerevisiae, Assay Type: Mitotic recombination or gene conversion, Assay Code: YEC+, Evaluation Type: Evaluation A (Pre-1980)) was “active; positive”. The mutagenic call (Species/Cell Type: Saccharomyces cerevisiae, Assay Type: Mitotic recombination or gene conversion, Assay Code: YEH+, Evaluation Type: Evaluation A (Pre-1980)) was “active; positive”.
For `C=CN(C)N=O`, the mutagenic call [3] was “active; positive” and the call [5] was “active; positive”.
In the case of `C/C=C1/C[C@@H](C)[C@@](C)(O)C(=O)OC/C2=C/CN(C)CC[C@@H](OC1=O)C2=O`, the mutagenic call [6] is reported as “active; positive”.
With `N.N.[Cl-].[Cl-].[Cl-].[Cl-].[Pt+4]` the mutagenic call [7] was “active; positive”.
With `Brc1ccc(C2CO2)cc1` (stereo unspecified) the mutagenic call (Species/Cell Type: Escherichia coli WP2 UVRA, Assay Type: Tryptophan reverse gene mutation, Assay Code: WPU+D, Dose Response: With dose response, Evaluation Type: Evaluation A (Pre-1980)) was “active; positive”.
In the case of `CCN(CCO)CCCNc1c2ccccc2nc2cc3ccccc3cc12`, the mutagenic call (Species/Cell Type: Chinese hamster ovary (CHO) cells, Assay Type: Forward gene mutation at the HPRT locus, Assay Code: CHOT, Evaluation Type: Evaluation B (Post-1980)) is reported as “no conclusion”.
In the case of `CCOP(=O)(OCC)Oc1ccc([N+](=O)[O-])cc1`, the mutagenic call [6] is reported as “active; positive”.
For `CN(C)c1ccc(N=Nc2ccc(S(=O)(=O)O)cc2)cc1`, the mutagenic call (Species/Cell Type: Bacillus subtilis (H17 vs M45T), Assay Type: Rec-assay, spot test, DNA effects (bacterial DNA repair), Assay Code: REXT, Evaluation Type: Evaluation A (Pre-1980)) was “no conclusion”, the mutagenic call (Species/Cell Type: Mammalian polychromatic erythrocytes, Assay Type: Micronucleus test, chromosome aberrations, Assay Code: MNTT, Evaluation Type: Evaluation A (Pre-1980)) was “no conclusion” and the mutagenic call (Species/Cell Type: Mouse, Sex: Male, Assay Type: Sperm morphology, Assay Code: SPI-, Evaluation Type: Evaluation A (Pre-1980)) was “inactive; negative”. For the same compound, the mutagenic call [7] was “active; positive” and the mutagenic call [8] was “inactive; negative”.
With `CCCCOc1ccc(CC(=O)NN)cc1CN(CC)CC` the mutagenic call (Species/Cell Type: Saccharomyces cerevisiae, Assay Type: Reverse gene mutation, Assay Code: YERT, Evaluation Type: Evaluation A (Pre-1980)) was “no conclusion”.
`O=Nc1ccc2c(c1)Cc1ccccc1-2` was tested, and the mutagenic call [4] was “active; positive” and the mutagenic call (Species/Cell Type: Salmonella typhimurium (one or more of the five standard strains: TA98, TA100, TA1535, TA1537, and TA1538), Assay Type: Histidine reverse gene mutation, Ames assay, Assay Code: SAL+, Evaluation Type: Evaluation A (Pre-1980)) was “active; positive”.
In the case of `CN1CCN(N=O)CC1`, the mutagenic call [1] is reported as “active; positive”, the mutagenic call [3] is reported as “active; positive” and the mutagenic call [9] is reported as “no conclusion”. For the same compound, the mutagenic call (Species/Cell Type: Salmonella typhimurium, Assay Type: Forward and reverse gene mutation, host-mediated assay, Assay Code: HMA+, Evaluation Type: Evaluation A (Pre-1980)) was “active; positive”.
In the case of `Nc1ccc(-c2nc(N(CCO)CCO)c3ccccc3n2)s1`, the mutagenic call [9] is reported as “no conclusion”.
`CC(=O)OCCCCCCBr` was tested, and the mutagenic call (Species/Cell Type: Mammalian polychromatic erythrocytes, Assay Type: Micronucleus test, chromosome aberrations, Assay Code: MNTT, Evaluation Type: Evaluation B (Post-1980)) was “no conclusion”.
`CN(C)c1ccc(N=Nc2ccccc2C(=O)O)cc1` was tested, and the mutagenic call (Species/Cell Type: Bacillus subtilis (H17 vs M45), Assay Type: Rec-assay, spot test, DNA effects (bacterial DNA repair), Assay Code: REW+, Evaluation Type: Evaluation A (Pre-1980)) was “active; positive” and the mutagenic call [9] was “no conclusion”.
For `N=c1ccc2nc3ccc(N)cc3sc-2c1`, the mutagenic call (Species/Cell Type: Bacillus subtilis (H17 vs M45), Assay Type: Rec-assay, spot test, DNA effects (bacterial DNA repair), Assay Code: REW-, Evaluation Type: Evaluation A (Pre-1980)) was “inactive; negative”, the mutagenic call [10] was “no conclusion” and the mutagenic call (Species/Cell Type: Saccharomyces cerevisiae, Assay Type: Mitotic recombination or gene conversion, Assay Code: YECT, Evaluation Type: Evaluation A (Pre-1980)) was “no conclusion”.
In the case of `FC(F)OC(F)(F)C(F)Cl` (stereo unspecified), the mutagenic call (Species/Cell Type: Chinese hamster lung (V79) cells, Assay Type: Forward gene mutation at the HPRT or ouabain locus, Assay Code: V79-, Evaluation Type: Evaluation A (Pre-1980)) is reported as “inactive; negative”, the mutagenic call (Species/Cell Type: Human lymphocytes, Assay Type: Sister-chromatid exchange (SCE) in vivo, Assay Code: SCY+, Evaluation Type: Evaluation B (Post-1980)) is reported as “active; positive” and the mutagenic call (Species/Cell Type: Mouse, Sex: Male, Assay Type: Sperm morphology, Assay Code: SPIT, Evaluation Type: Evaluation A (Pre-1980)) is reported as “no conclusion”. The mutagenic call (Species/Cell Type: Nonhuman, Assay Type: Sister-chromatid exchange (SCE) in vitro, Assay Code: SC2T, Evaluation Type: Evaluation B (Post-1980)) was “no conclusion” and the mutagenic call [9] was “no conclusion”.
`ClC(Cl)=C(c1ccc(Cl)cc1)c1ccc(Cl)cc1` was tested, and the mutagenic call [1] was “active; positive”, the mutagenic call [10] was “no conclusion” and the mutagenic call (Species/Cell Type: Escherichia coli polA (W3119 vs P3478), Assay Type: Rec-assay, DNA effects (bacterial DNA repair), Assay Code: RE1T, Evaluation Type: Evaluation A (Pre-1980)) was “no conclusion”. For the same compound, the mutagenic call (Species/Cell Type: Mouse lymphoma (L5178Y) cells, Assay Type: Forward gene mutation at the thymidine kinase (TK) locus, chromosome aberrations, Assay Code: L51+/-*, Activation: With metabolic activation, Evaluation Type: Evaluation A (Pre-1980)) was “inactive; positive without activation, negative with activation”, the mutagenic call [11] was “active; positive” and the call [2] was “active; positive”. The mutagenic call (Species/Cell Type: Saccharomyces cerevisiae, Assay Type: Mitotic recombination or gene conversion, Assay Code: YEH-, Evaluation Type: Evaluation A (Pre-1980)) was “inactive; negative”, the mutagenic call [8] was “inactive; negative” and the mutagenic call (Species/Cell Type: Salmonella typhimurium, Serratia marcesens, Assay Type: Forward and reverse gene mutation, host-mediated assay, Assay Code: HM2-, Evaluation Type: Evaluation A (Pre-1980)) was “inactive; negative”.
With `O=C1NC(=O)C(=O)C(=O)N1` the mutagenic call (Species/Cell Type: Neurospora crassa, Assay Type: Aneuploidy, chromosome aberrations, Assay Code: NEN-, Evaluation Type: Evaluation A (Pre-1980)) was “inactive; negative”.
In the case of `CCOc1nc2c(c(=O)n(C)c(=O)n2C)n1C`, the mutagenic call (Species/Cell Type: Allium cepa, Assay Type: Chromosome aberrations, Assay Code: ALC+D, Dose Response: With dose response, Evaluation Type: Evaluation A (Pre-1980)) is reported as “active; positive”, the mutagenic call (Species/Cell Type: Arabidopsis species, Assay Type: Gene mutation, Assay Code: ARM+, Evaluation Type: Evaluation A (Pre-1980)) is reported as “active; positive” and the mutagenic call (Species/Cell Type: Human lymphocytes or leukocytes, Assay Type: Chromosome aberrations in vitro, Assay Code: CY7+, Evaluation Type: Evaluation A (Pre-1980)) is reported as “active; positive”. For the same compound, the mutagenic call [11] was “active; positive”, the mutagenic call (Species/Cell Type: Nonhuman, Assay Type: Sister-chromatid exchange (SCE) in vitro, Assay Code: SC2-, Evaluation Type: Evaluation B (Post-1980)) was “inactive; negative” and the mutagenic call (Species/Cell Type: Nonhuman, Assay Type: Sister-chromatid exchange (SCE) in vitro, Assay Code: SC2T, Evaluation Type: Evaluation A (Pre-1980)) was “no conclusion”. The mutagenic call (Species/Cell Type: Vicia faba, Assay Type: Chromosome aberrations, Assay Code: VIC+, Evaluation Type: Evaluation A (Pre-1980)) was “active; positive”.

Source: PubChem BioAssay AID1259408 (Genetic Toxicology Data Bank (GENE-TOX), 2018)
